Reference: patent publication US10077261B2, “Imidazolin-5-one derivative useful as FASN inhibitors for the treatment of cancer” (Janssen Pharmaceutica NV, priority 2012, dated 2018)

Molecular target: T1, hFASN enzyme (full length) (Homo sapiens, UniProt P49327)
T1 construct: 10 μL hFASN enzyme (full length, 300 ng, purified in house); made in house
Experiment: Fatty Acid Synthase (FASN) inhibition scintillation proximity assay
Format: biochemical
Conditions: for inhibition at 10 µM: read-out: Human FASN % inhibition @ 10 μM, 10 μM test compound; for IC50: read-out: Human FASN pIC50 (converted)
Procedure, shortened: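 Full-length in-house purified enzyme (300 ng) was tested in 100 mM KH2PO4 pH 7.5, 1 mM DTT with ³H-acetyl-CoA and malonyl-CoA as substrates; compounds ranged 0.01–30 μM. Reactions were stopped with streptavidin imaging beads, read by LEADseeker at 610 nm, and fitted to a 4-parameter logistic curve.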

T1 sequence (P49327 whole entry): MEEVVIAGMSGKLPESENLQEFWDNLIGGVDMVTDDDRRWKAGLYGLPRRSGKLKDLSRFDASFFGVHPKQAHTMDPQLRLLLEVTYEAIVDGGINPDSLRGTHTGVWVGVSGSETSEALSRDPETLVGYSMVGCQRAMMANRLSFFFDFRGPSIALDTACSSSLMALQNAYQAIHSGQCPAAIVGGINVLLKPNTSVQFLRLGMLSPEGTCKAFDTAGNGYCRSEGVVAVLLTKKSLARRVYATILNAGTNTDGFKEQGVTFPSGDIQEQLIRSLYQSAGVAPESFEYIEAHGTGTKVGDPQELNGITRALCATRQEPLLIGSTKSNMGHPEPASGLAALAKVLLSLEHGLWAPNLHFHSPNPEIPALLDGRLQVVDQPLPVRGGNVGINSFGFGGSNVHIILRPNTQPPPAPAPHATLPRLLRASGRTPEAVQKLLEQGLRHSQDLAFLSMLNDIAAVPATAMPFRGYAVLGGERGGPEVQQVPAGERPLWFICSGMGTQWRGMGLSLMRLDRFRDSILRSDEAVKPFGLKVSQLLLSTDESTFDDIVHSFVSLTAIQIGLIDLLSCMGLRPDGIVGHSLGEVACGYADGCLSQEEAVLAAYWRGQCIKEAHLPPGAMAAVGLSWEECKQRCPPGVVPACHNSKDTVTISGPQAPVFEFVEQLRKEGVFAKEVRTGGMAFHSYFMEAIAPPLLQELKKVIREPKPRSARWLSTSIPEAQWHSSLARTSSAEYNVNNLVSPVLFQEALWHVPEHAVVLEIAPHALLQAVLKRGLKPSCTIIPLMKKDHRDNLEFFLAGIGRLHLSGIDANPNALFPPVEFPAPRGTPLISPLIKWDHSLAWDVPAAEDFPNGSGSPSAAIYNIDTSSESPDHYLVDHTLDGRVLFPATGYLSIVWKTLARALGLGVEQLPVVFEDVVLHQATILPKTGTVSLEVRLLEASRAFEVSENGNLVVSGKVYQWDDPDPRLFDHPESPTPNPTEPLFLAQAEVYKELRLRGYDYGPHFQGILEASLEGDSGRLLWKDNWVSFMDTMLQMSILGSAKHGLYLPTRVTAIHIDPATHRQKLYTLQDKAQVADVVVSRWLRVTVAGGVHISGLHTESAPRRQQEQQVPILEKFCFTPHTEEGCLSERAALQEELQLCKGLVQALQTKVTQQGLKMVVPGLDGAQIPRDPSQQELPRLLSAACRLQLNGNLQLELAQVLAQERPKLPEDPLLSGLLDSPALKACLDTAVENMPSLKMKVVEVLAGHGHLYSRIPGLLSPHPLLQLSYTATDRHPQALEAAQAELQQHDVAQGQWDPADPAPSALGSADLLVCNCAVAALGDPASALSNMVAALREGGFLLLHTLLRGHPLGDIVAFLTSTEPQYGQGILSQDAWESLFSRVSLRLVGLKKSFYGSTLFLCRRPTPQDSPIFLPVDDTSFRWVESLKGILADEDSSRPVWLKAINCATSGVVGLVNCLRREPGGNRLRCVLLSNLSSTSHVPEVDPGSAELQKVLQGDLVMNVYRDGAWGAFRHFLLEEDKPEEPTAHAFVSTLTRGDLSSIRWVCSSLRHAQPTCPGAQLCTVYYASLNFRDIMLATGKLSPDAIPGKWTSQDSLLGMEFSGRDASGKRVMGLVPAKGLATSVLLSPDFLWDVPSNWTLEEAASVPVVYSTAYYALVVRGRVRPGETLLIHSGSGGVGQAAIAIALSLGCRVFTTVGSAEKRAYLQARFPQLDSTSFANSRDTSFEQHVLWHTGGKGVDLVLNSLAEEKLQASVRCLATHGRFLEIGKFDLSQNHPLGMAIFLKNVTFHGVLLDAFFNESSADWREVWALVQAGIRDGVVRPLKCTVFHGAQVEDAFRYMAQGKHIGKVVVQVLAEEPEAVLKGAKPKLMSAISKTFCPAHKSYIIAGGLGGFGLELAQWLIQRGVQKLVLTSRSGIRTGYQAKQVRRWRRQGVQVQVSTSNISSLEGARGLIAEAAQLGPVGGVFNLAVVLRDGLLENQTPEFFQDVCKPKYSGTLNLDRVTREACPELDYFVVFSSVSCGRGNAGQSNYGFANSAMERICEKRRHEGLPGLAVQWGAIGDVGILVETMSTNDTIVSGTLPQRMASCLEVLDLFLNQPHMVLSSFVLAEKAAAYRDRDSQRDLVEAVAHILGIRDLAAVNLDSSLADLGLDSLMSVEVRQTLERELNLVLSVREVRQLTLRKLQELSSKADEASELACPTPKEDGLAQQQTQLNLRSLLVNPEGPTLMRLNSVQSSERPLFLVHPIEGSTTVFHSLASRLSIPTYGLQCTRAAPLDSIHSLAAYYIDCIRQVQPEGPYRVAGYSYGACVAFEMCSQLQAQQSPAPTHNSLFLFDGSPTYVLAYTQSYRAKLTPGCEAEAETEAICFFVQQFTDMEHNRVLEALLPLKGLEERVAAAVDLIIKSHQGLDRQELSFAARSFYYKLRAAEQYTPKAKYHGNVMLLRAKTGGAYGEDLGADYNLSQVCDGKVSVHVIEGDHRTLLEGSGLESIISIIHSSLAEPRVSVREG

Row | Compound | inhibition at 10 µM [%] | IC50 [µM]
1 | O=C(C1CC1)N1CCC[C@@H](CN2C(=O)C3(CC3)N=C2c2ccc(-c3ccc(O)cc3)cc2)C1 [compound 925, (R)-6-((1-(cyclopropanecarbonyl)piperidin-3-yl)methyl)-5-(4′-hydroxy-[1,1′-biphenyl]-4-yl)-4,6-diazaspiro[2.4]hept-4-en-7-one] | 5 | > 10
2 | CC(C)C(=O)N1CCC2(CC1)N=C(c1ccc(-c3ccc4c(cnn4C)c3)cc1)N(C[C@@H]1CCN(C(=O)C3CC3)C1)C2=O [compound 139, (R)-3-((1-(cyclopropanecarbonyl)pyrrolidin-3-yl)methyl)-8-isobutyryl-2-(4-(1-methyl-1H-indazol-5-yl)phenyl)-1,3,8-triazaspiro[4.5]dec-1-en-4-one] | 112 | 0.174
3 | O=C(C1CC1)N1CC[C@@H](CN2C(=O)C3(CCN(CCO)CC3)N=C2c2ccc(-c3ccc4cnccc4c3)cc2)C1 [compound 159, 3-{[(3R)-1-(Cyclopropylcarbonyl)pyrrolidin-3-yl]methyl}-8-(2-hydroxyethyl)-2-(4-isoquinolin-6-ylphenyl)-1,3,8-triazaspiro[4.5]dec-1-en-4-one] | 116 | 0.0794
4 | Cc1cc2cc(-c3ccc(C4=NC5(CC5)C(=O)N4CC4CN(C(=O)C5CC5)C4)cc3C)ccc2o1 [compound 179, 6-{[1-(Cyclopropylcarbonyl)azetidin-3-yl]methyl}-5-[3-methyl-4-(2-methyl-1-benzofuran-5-yl)phenyl]-4,6-diazaspiro[2.4]hept-4-en-7-one] | 59.5 | 6.31
5 | O=C(c1nccs1)N1CC[C@@H](CN2C(=O)C3(CCOCC3)N=C2c2ccc(-c3ccc4cccnc4c3)cc2)C1 [compound 666, 2-(4-Quinolin-7-ylphenyl)-3-{[(3R)-1-(1,3-thiazol-2-ylcarbonyl)pyrrolidin-3-yl]methyl}-8-oxa-1,3-diazaspiro[4.5]dec-1-en-4-one] | 62 | ~5.01
6 | Cc1cc2cc(-c3ccc(C4=NC5(CC5)C(=O)N4CC4CN(C(=O)C5CC5)C4)c(F)c3)ccc2[nH]1 [compound 869, 6-((1-(cyclopropanecarbonyl)azetidin-3-yl)methyl)-5-(2-fluoro-4-(2-methyl-1H-indol-5-yl)phenyl)-4,6-diazaspiro[2.4]hept-4-en-7-one] | – | 0.0468
7 | Cn1cc(-c2ccc(-c3ccc(C4=NC5(CCOC5)C(=O)N4CC4CN(S(C)(=O)=O)C4)cc3)cc2)cn1 (stereo not shown) [compound 950, 2-(4′-(1-methyl-1H-pyrazol-4-yl)-[1,1′-biphenyl]-4-yl)-3-((1-(methylsulfonyl)azetidin-3-yl)methyl)-7-oxa-1,3-diazaspiro[4.4]non-1-en-4-one] | -1.27 | > 10
8 | N#CC1(c2ccc(-c3ccc(C4=NC5(CC5)C(=O)N4CC4CN(C(=O)C5CC5)C4)cc3)cn2)CC1 [compound 800, 1-(5-(4-(6-((1-(cyclopropanecarbonyl)azetidin-3-yl)methyl)-7-oxo-4,6-diazaspiro[2.4]hept-4-en-5-yl)phenyl)pyridin-2-yl)cyclopropanecarbonitrile] | 16 | > 10
9 | CC(C)n1cc2cc(-c3ccc(C4=NC5(CC5)C(=O)N4C[C@@H]4CCN(C(=O)C5CC5)C4)cc3)ccc2n1 [compound 811, (R)-6-((1-(cyclopropanecarbonyl)pyrrolidin-3-yl)methyl)-5-(4-(2-isopropyl-2H-indazol-5-yl)phenyl)-4,6-diazaspiro[2.4]hept-4-en-7-one] | 35 | > 10
10 | CC(=O)N1CCC2(CC1)N=C(c1ccc(-c3ccc4[nH]ncc4c3)cc1)N(C[C@@H]1CCN(C(=O)C3CC3)C1)C2=O [compound 148, 8-Acetyl-3-{[(3R)-1-(cyclopropylcarbonyl)pyrrolidin-3-yl]methyl}-2-[4-(1H-indazol-5-yl)phenyl]-1,3,8-triazaspiro[4.5]dec-1-en-4-one] | 105 | 0.302
11 | COC(=O)N1CC2(C1)N=C(c1ccc(-c3ccc4cccnc4c3)cc1)N(C[C@@H]1CCN(C(=O)c3nccs3)C1)C2=O [compound 962, (R)-methyl 8-oxo-6-(4-(quinolin-7-yl)phenyl)-7-((1-(thiazole-2-carbonyl)pyrrolidin-3-yl)methyl)-2,5,7-triazaspiro[3.4]oct-5-ene-2-carboxylate] | 43 | > 10
12 | Cn1ncc2cc(-c3ccc(C4=NC5(CCN(C(=O)C(F)(F)F)CC5)C(=O)N4CC4CN(C(=O)C5CC5)C4)cc3)ccc21 [compound 964, 3-((1-(cyclopropanecarbonyl)azetidin-3-yl)methyl)-2-(4-(1-methyl-1H-indazol-5-yl)phenyl)-8-(2,2,2,-trifluoroacetyl)-1,3,8-triazaspiro[4.5]dec-1-en-4-one] | 41 | ~11
13 | O=C(C1CC1)N1CCC(CN2C(=O)C3(CC3)N=C2c2ccc(-c3ccc4ccncc4c3)cc2)CC1 [compound 25, 6-{[1-(Cyclopropylcarbonyl)piperidin-4-yl]methyl}-5-(4-isoquinolin-7-ylphenyl)-4,6-diazaspiro[2.4]hept-4-en-7-one] | 64.4 | ~4.9
14 | Cn1cc(-c2ccc(-c3ccc(C4=NC5(CCOCC5)C(=O)N4C[C@@H]4CCN(C(=O)N5CCCC5)C4)cc3)cc2)cn1 [compound 660, 2-[4′-(1-Methyl-1H-pyrazol-4-yl)biphenyl-4-yl]-3-{[(3S)-1-(pyrrolidin-1-ylcarbonyl)pyrrolidin-3-yl]methyl}-8-oxa-1,3-diazaspiro[4.5]dec-1-en-4-one] | 76 | 2.24
15 | Cn1nccc1-c1ccc(C2=NC3(CC3)C(=O)N2CC2CCN(C(=O)C3CC3)CC2)cc1 [compound 8, 6-{[1-(Cyclopropylcarbonyl)piperidin-4-yl]methyl}-5-[4-(1-methyl-1H-pyrazol-5-yl)phenyl]-4,6-diazaspiro[2.4]hept-4-en-7-one] | 5.1 | > 10
16 | N#Cc1cc2cc(-c3ccc(C4=NC5(CC5)C(=O)N4CC4CN(C(=O)C5CC5)C4)cc3F)ccc2o1 [compound 477, 5-[4-(6-{[1-(Cyclopropylcarbonyl)azetidin-3-yl]methyl}-7-oxo-4,6-diazaspiro[2.4]hept-4-en-5-yl)-2-fluorophenyl]-1-benzofu8ran-2-carbonitrile] | 67 | 3.09
17 | O=C(C1CC1)N1CC[C@@H](CN2C(=O)C3(CCCC3)N=C2c2ccc(-c3ccnc(N4CCNCC4)c3)cc2)C1 [compound 828, (R)-3-((1-(cyclopropanecarbonyl)pyrrolidin-3-yl)methyl)-2-(4-(2-(piperazin-1-yl)pyridin-4-yl)phenyl)-1,3-diazaspiro[4.4]non-1-en-4-one] | 4 | > 10
18 | O=C(C1CC1)N1CCC(CN2C(=O)C3(CC3)N=C2c2ccc(-c3ccc(-c4ccncc4)cc3)cc2)CC1 [compound 61, 6-{[1-(Cyclopropylcarbonyl)piperidin-4-yl]methyl}-5-(4′-pyridin-4-ylbiphenyl-4-yl)-4,6-diazaspiro[2.4]hept-4-en-7-one] | 63.2 | 3.98
19 | Cc1cc2cc(-c3ccc(C4=NC5(CCN(C(C)C)CC5)C(=O)N4C[C@@H]4CCN(C(=O)C5CC5)C4)cc3)ccc2o1 [compound 186, 3-{[(3R)-1-(Cyclopropylcarbonyl)pyrrolidin-3-yl]methyl}-2-[4-(2-methyl-1-benzofuran-5-yl)phenyl]-8-(1-methylethyl)-1,3,8-triazaspiro[4.5]dec-1-en-4-one] | 80.4 | 1.55
